Data on 14 compounds can be found in patent US20060148710A1, “Oligopeptides, composition and use thereof as elicitors of the natural defences of plants” (DE Sangosse SA, priority 2003, published 2006).

Values joined by “and” are separate entries in the source; they are usually repeats but may differ in a detail not shown here. Identical values can stand only once.

Assay [1] has as its system Zucchini plants. The assay can be described thus: Peroxydasic activity in treated zucchini plants. The note with it: for Peroxydasic activity / Percent of peroxydasic activity relative to the product: zucchini plants aged 3 weeks, product 3.5 mg/L; for Percent of peroxydasic activity relative to the product: product 6 = 100%; for elicitor activity: zucchini plants, comparison in words. Format: in vivo. From the text: (§1) a) Measurement of the Peroxydasic Acttivity (Enzyme Endogenous to Plants)
(§2) Given the primordial role of the peroxydases in the resistance of plants, we have used the peroxydasic activity as a marker of the resistance following treatments by elicitors.
(§3) So as to measure the peroxydasic activities, leaves are crushed in a citrate-monohydrogeno-phosphate-disodium buffer. The extract is then placed in gaiacol and oxygenated water. A rapid reaction takes place: the gaiacol is transformed into tetragaiacol. The appearance of tetragaiacol in the medium permits us to calculate the peroxydasic activity.
(§4) Measurements are carried out in this same buffer by using the gaiacol as substrate. The results are expressed in ΔDO/mn/g of fresh material.
(§5) All the plants tested are young plants obtained from seed or by slipping. Pulverization is effected of the formulations obtained from oligopeptides. These formulations contain various wetting or penetrating agents capable of carrying the active material (oligopeptides) to the cells.
Zucchini plants aged 3 weeks have been treated with oligopeptides.

Assay [2] concerns tobacco plants. The note with it: 10 mM; cited from earlier work.
Assay [3] deals with Grape plants. Put plainly: Peroxydasic activity in treated grape plants. Format: in vivo. Particulars: grape plants aged 3 weeks.
Description: as §1, §2, §3, §4, §5
(§6) Grape plants aged 3 weeks have been treated with oligopeptides. The results obtained are assembled in Tables II, III (Sheet 1/2).

In assay [4] the test system is Grape plants. Put plainly: Chitinasic activity in treated grape plants. The note with it: grape plants aged 3 weeks. Format: in vivo. The procedure:
b) Measurement of the Chitinasic Activity
So as to verify that the mechanisms of resistance are triggered, we have also measured an enzymatic activity appearing in the situations of resistance: the chitinasic activity (enzyme synthesis upon attack of the parasites, which degrades chitin, constituting the walls of the phytopathogenic mushrooms).
Colormetric reaction used: there is used an acetate buffer:
Solution of chitin+enzymatic extract+acetate buffer qsp 0.5 ml (blue at 2 mg/ml) crude 50 mM-(pH5) (100 microliters)
incubation for 30 minutes at 37° C., and under continuous agitation.
the reaction is stopped by addition of a solution of HCL 1N
colormetric or spectrophotometric measurement at 550 nm
The chitinasic activity is expressed as ΔDO/mn/g of fresh material.
as §5, §6

`CC(C)(N)C(=O)O` [Aib, α-aminoisobutyric acid, reference compound]: in assay [1], the Peroxydasic activity was 53.1 ΔDO/min/aMF and the “Percent of peroxydasic activity relative to the product” value was found to be 15.26%.
On the same counts, the results for `C[C@H](N)C(=O)O` [Alanine, reference compound] are 65.78 ΔDO/min/aMF and 18.9%.
As to `CC(N)CO` (centres unmarked) [Alininol, Alaninol, reference compound], in assay [1], the Peroxydasic activity is 69.46 ΔDO/min/aMF, the “Percent of peroxydasic activity relative to the product” value was found to be 19.96% and the elicitor activity entry is “most active of the residues tested”.
As to `NCCCC(=O)O` [GABA, γ-aminobutyric acid, reference compound], the “capacity to trigger the ARS” value in assay [2] was “totally inactive”. Further, in assay [1], the Peroxydasic activity is 49.1 ΔDO/min/aMF and the “Percent of peroxydasic activity relative to the product” value stood at 14.11%.
For the compound `CCC(N)C(=O)O` (stereo not drawn) [α-aminobutyric acid], the “capacity to trigger the ARS” value in assay [2] is recorded as “less active”.
For `CC(N)CC(=O)O` (stereo not drawn) [β-aminobutyric acid], in assay [2], the “capacity to trigger the ARS” value is “active”.
Turning to H-Ala1-Ala-ol [Product 7], in assay [1], the Peroxydasic activity was 99.16 ΔDO/min/aMF and the “Percent of peroxydasic activity relative to the product” value amounted to 28.49%.
Turning to H-Ala2-Ala-ol [Product 8], in assay [1], the Peroxydasic activity is recorded as 94.6 ΔDO/min/aMF and the “Percent of peroxydasic activity relative to the product” value is on record as 27.18%.
For H-Ala3-Ala-ol [Product 9], in assay [1], the Peroxydasic activity is reported as 112 ΔDO/min/aMF and the “Percent of peroxydasic activity relative to the product” value was determined as 32.18%.
H-Ala4-Ala-ol [Product 10]: in assay [1], the Peroxydasic activity was 194 ΔDO/min/aMF and the “Percent of peroxydasic activity relative to the product” value was 55.74%.
On the same counts, the results for H-Ala5-Ala-ol [Product 11] are 102 ΔDO/min/aMF and 29.31%.
Consider H-Ala6-Ala-OH [Product 12], for which, in assay [1], the Peroxydasic activity is given as 175 ΔDO/min/aMF; the “Percent of peroxydasic activity relative to the product” value is 50% and 50.28%.
H-Alan-Ala-OH [Product 13]: in assay [3], the “Percent of peroxydasic activity relative to the most active product” value was 59.49% and the Peroxydasic activity was 136.6 ΔDO/mn/g of fresh material. In assay [4], the Chitinasic activity is recorded as 65.3 ΔDO/mn/g of fresh material and the “Percent of chitinasic activity relative to the most active product” value was 100%.
Consider H-Alan-Ala-ol [Product 6], for which, in assay [3], the “Percent of peroxydasic activity relative to the most active product” value turned out to be 81.66% and the Peroxydasic activity is reported as 187.5 ΔDO/mn/g of fresh material. Besides, in assay [1], the Peroxydasic activity was 348 ΔDO/min/aMF, the “Percent of peroxydasic activity relative to the product” value came to 100% and the elicitor activity result is reported as “strongest elicitor activity”. For the same compound, in assay [4], the Chitinasic activity is recorded as 45.4 ΔDO/mn/g of fresh material and the “Percent of chitinasic activity relative to the most active product” value was 80.94%.
